Measurements: patent publication US11078170B2 (Assembly Biosciences, Inc., priority 2017, dated 2021)

Test system: HBV viral production from HepAD38 cells
Assay: Activity of test compounds on viral production from HepAD38 cells (viral load by qPCR of HBV core sequence in supernatant)
Format: cell-based
Conditions: Hepatitis B virus, 120 h, 5 days incubation, HBV DNA in supernatant by qPCR, top concentration 10 μM, read-out: Viral Load EC50 Activity range
Method in brief: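 EC50 and CC50 come from four-parameter fits of supernatant viral load and CellTiter-Glo viability, respectively. Viral load was measured by core-region TaqMan qPCR against HBV DNA standards and compared with DMSO controls. Tet-free HepAD38 cells (50,000/well, 2% FBS) were exposed to compound, highest 10 μM, for 5 days at 37° C.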

SMILES	EC50
CN1[C@@H](C(=O)Nc2ccc(F)c(Cl)c2)C[C@@H](c2cc(-c3cnn(C)c3)cs2)NS1(=O)=O [HBV-CSU-169-ISO-II, Cis-N-(3-chloro-4-fluorophenyl)-2-methyl-5-(4-(1-methyl-1H-pyrazol-4-yl)thiophen-2-yl)-1,2,6-thiadiazinane-3-carboxamide 1,1-dioxide]	1 to 5 µM
CN1[C@@H](C(=O)Nc2ccc(F)c(Cl)c2)C[C@@H](c2cc(-c3cccs3)cs2)NS1(=O)=O [HBV-CSU-170-ISO-II]	< 1 µM
CN1[C@H](C(=O)Nc2ccc(F)c(Cl)c2)C[C@H](c2cc(-c3cccs3)cs2)NS1(=O)=O [HBV-CSU-170-ISO-I]	< 1 µM
CN1C(C(=O)Nc2ccc(F)c(Cl)c2)CC(c2cc(-c3cccs3)cs2)NS1(=O)=O (stereo not shown) [HBV-CSU-170]	< 1 µM
CN1C(C(=O)Nc2ccc(F)c(Cl)c2)CC(c2cc(-c3ccc(NS(C)(=O)=O)cc3)cs2)NS1(=O)=O (stereo not drawn) [HBV-CSU-171, Cis-N-(3-chloro-4-fluorophenyl)-2-methyl-5-(4-(4-(methylsulfonamido)phenyl)thiophen-2-yl)-1,2,6-thiadiazinane-3-carboxamide 1,1-dioxide]	< 1 µM
CN1[C@H](C(=O)Nc2ccc(F)c(Cl)c2)C[C@H](c2ncc(-c3ccc(Br)c(F)c3)s2)NS1(=O)=O [HBV-CSU-173-ISO-I, Cis-5-(5-(4-Bromo-3-fluorophenyl)thiazol-2-yl)-N-(3-chloro-4-fluorophenyl)-2-methyl-1,2,6-thiadiazinane-3-carboxamide 1,1-dioxide]	< 1 µM
CN1[C@@H](C(=O)Nc2ccc(F)c(Cl)c2)C[C@@H](c2ncc(-c3ccc(Br)c(F)c3)s2)NS1(=O)=O [HBV-CSU-173-ISO-II, Cis-5-(5-(4-Bromo-3-fluorophenyl)thiazol-2-yl)-N-(3-chloro-4-fluorophenyl)-2-methyl-1,2,6-thiadiazinane-3-carboxamide 1,1-dioxide]	> 5 µM
CN1[C@H](C(=O)Nc2ccc(F)c(Cl)c2)C[C@H](c2ncc(-c3cccnc3)s2)NS1(=O)=O [HBV-CSU-175-ISO-I, Cis-N-(3-Chloro-4-fluorophenyl)-2-methyl-5-(5-(pyridin-3-yl)thiazol-2-yl)-1,2,6-thiadiazinane-3-carboxamide 1,1-dioxide]	< 1 µM
CN1[C@@H](C(=O)Nc2ccc(F)c(Cl)c2)C[C@@H](c2ncc(-c3cccnc3)s2)NS1(=O)=O [HBV-CSU-175-ISO-II, Cis-N-(3-Chloro-4-fluorophenyl)-2-methyl-5-(5-(pyridin-3-yl)thiazol-2-yl)-1,2,6-thiadiazinane-3-carboxamide 1,1-dioxide]	< 1 µM
CN1[C@H](C(=O)Nc2ccc(F)c(Cl)c2)C[C@H](c2ncc(-c3ccccn3)s2)NS1(=O)=O [HBV-CSU-176-ISO-I, Cis-N-(3-chloro-4-fluorophenyl)-2-methyl-5-(5-(pyridin-2-yl)thiazol-2-yl)-1,2,6-thiadiazinane-3-carboxamide 1,1-dioxide]	< 1 µM
CN1[C@@H](C(=O)Nc2ccc(F)c(Cl)c2)C[C@@H](c2ncc(-c3ccccn3)s2)NS1(=O)=O [HBV-CSU-176-ISO-II, Cis-N-(3-chloro-4-fluorophenyl)-2-methyl-5-(5-(pyridin-2-yl)thiazol-2-yl)-1,2,6-thiadiazinane-3-carboxamide 1,1-dioxide]	> 5 µM
CN1[C@H](C(=O)Nc2ccc(F)c(Cl)c2)C[C@H](c2ncc(-c3cnn(C)c3)s2)NS1(=O)=O [HBV-CSU-177-ISO-I, Cis-N-(3-Chloro-4-fluorophenyl)-2-methyl-5-(5-(1-methyl-1H-pyrazol-4-yl)thiazol-2-yl)-1,2,6-thiadiazinane-3-carboxamide 1,1-dioxide]	< 1 µM
CN1[C@H](C(=O)Nc2ccc(F)c(Cl)c2)C[C@H](c2ncc(-c3cccs3)s2)NS1(=O)=O [HBV-CSU-178-ISO-I, Cis-N-(3-Chloro-4-fluorophenyl)-2-methyl-5-(5-(thiophen-2-yl)thiazol-2-yl)-1,2,6-thiadiazinane-3-carboxamide 1,1-dioxide]	< 1 µM
CN1[C@@H](C(=O)Nc2ccc(F)c(Cl)c2)C[C@@H](c2ncc(-c3cccs3)s2)NS1(=O)=O [HBV-CSU-178-ISO-II, Cis-N-(3-Chloro-4-fluorophenyl)-2-methyl-5-(5-(thiophen-2-yl)thiazol-2-yl)-1,2,6-thiadiazinane-3-carboxamide 1,1-dioxide]	1 to 5 µM
CN1[C@H](C(=O)Nc2ccc(F)c(Cl)c2)C[C@H](c2ncc(-c3ccc(NS(C)(=O)=O)cc3)s2)NS1(=O)=O [HBV-CSU-179-ISO-I, Cis-N-(3-Chloro-4-fluorophenyl)-2-methyl-5-(5-(4-(methylsulfonamido)phenyl)thiazol-2-yl)-1,2,6-thiadiazinane-3-carboxamide 1,1-dioxide]	< 1 µM
CN1[C@@H](C(=O)Nc2ccc(F)c(Cl)c2)C[C@@H](c2ncc(-c3ccc(NS(C)(=O)=O)cc3)s2)NS1(=O)=O [HBV-CSU-179-ISO-II, Cis-N-(3-Chloro-4-fluorophenyl)-2-methyl-5-(5-(4-(methylsulfonamido)phenyl)thiazol-2-yl)-1,2,6-thiadiazinane-3-carboxamide 1,1-dioxide]	1 to 5 µM

SMILES	EC50
COc1ccc(C2CC(C(=O)Nc3ccc(F)c(Cl)c3)N(C)S(=O)(=O)N2)cc1 (stereo not drawn) [HBV-CSU-200, Cis-N-(3-Chloro-4-fluorophenyl)-5-(4-methoxyphenyl)-2-methyl-1,2,6-thiadiazinane-3-carboxamide 1,1-dioxide]	< 1 µM
CN1C(C(=O)Nc2ccc(F)c(Cl)c2)CC(c2ccc(O)cc2)NS1(=O)=O (stereo not drawn) [HBV-CSU-201, Cis-N-(3-Chloro-4-fluorophenyl)-5-(4-hydroxyphenyl)-2-methyl-1,2,6-thiadiazinane-3-carboxamide 1,1-dioxide]	< 1 µM
CN1C(C(=O)Nc2ccc(F)c(Cl)c2)CC(c2ccc(Br)cc2)NS1(=O)=O (stereo not drawn) [HBV-CSU-202, Cis-5-(4-Bromophenyl)-N-(3-chloro-4-fluorophenyl)-2-methyl-1,2,6-thiadiazinane-3-carboxamide 1,1-dioxide]	< 1 µM
COc1cccc(C2CC(C(=O)Nc3ccc(F)c(Cl)c3)N(C)S(=O)(=O)N2)c1 (stereo not drawn) [HBV-CSU-204, Cis-N-(3-Chloro-4-fluorophenyl)-5-(3-methoxyphenyl)-2-methyl-1,2,6-thiadiazinane-3-carboxamide 1,1-dioxide]	< 1 µM
CN1C(C(=O)Nc2ccc(F)c(Cl)c2)CC(c2cccc(O)c2)NS1(=O)=O (stereo not drawn) [HBV-CSU-205, Cis-N-(3-chloro-4-fluorophenyl)-5-(3-hydroxyphenyl)-2-methyl-1,2,6-thiadiazinane-3-carboxamide 1,1-dioxide]	< 1 µM
CN(C)CCCOc1ccc([C@@H]2C[C@H](C(=O)Nc3ccc(F)c(Cl)c3)N(C)S(=O)(=O)N2)cc1 [HBV-CSU-208-ISO-I, Cis-N-(3-chloro-4-fluorophenyl)-5-(4-(3-(dimethylamino)propoxy)phenyl)-2-methyl-1,2,6-thiadiazinane-3-carboxamide 1,1-dioxide]	> 5 µM
CN(C)CCCOc1ccc([C@H]2C[C@@H](C(=O)Nc3ccc(F)c(Cl)c3)N(C)S(=O)(=O)N2)cc1 [HBV-CSU-208-ISO-II, Cis-N-(3-chloro-4-fluorophenyl)-5-(4-(3-(dimethylamino)propoxy)phenyl)-2-methyl-1,2,6-thiadiazinane-3-carboxamide 1,1-dioxide]	< 1 µM
CN(C)CCCOc1cccc(C2CC(C(=O)Nc3ccc(F)c(Cl)c3)N(C)S(=O)(=O)N2)c1 (stereo not drawn) [HBV-CSU-209, Cis-N-(3-Chloro-4-fluorophenyl)-5-(3-(3-(dimethylamino)propoxy)phenyl)-2-methyl-1,2,6-thiadiazinane-3-carboxamide 1,1-dioxide]	< 1 µM
COCCN1[C@@H](C(=O)Nc2ccc(F)c(Cl)c2)C[C@@H](c2ccc(F)cc2)NS1(=O)=O [HBV-CSU-210-ISO-I, Cis-N-(3-Chloro-4-fluorophenyl)-5-(4-fluorophenyl)-2-(2-methoxyethyl)-1,2,6-thiadiazinane-3-carboxamide 1,1-dioxide]	> 5 µM
COCCN1[C@H](C(=O)Nc2ccc(F)c(Cl)c2)C[C@H](c2ccc(F)cc2)NS1(=O)=O [HBV-CSU-210-ISO-II, Cis-N-(3-Chloro-4-fluorophenyl)-5-(4-fluorophenyl)-2-(2-methoxyethyl)-1,2,6-thiadiazinane-3-carboxamide 1,1-dioxide]	< 1 µM
CN1[C@H](C(=O)Nc2ccc(F)c(Br)c2)C[C@H](c2ccc(F)cc2)NS1(=O)=O [HBV-CSU-211-ISO-I, Cis-N-(3-Bromo-4-fluorophenyl)-5-(4-fluorophenyl)-2-methyl-1,2,6-thiadiazinane-3-carboxamide 1,1-dioxide]	< 1 µM
CN1[C@@H](C(=O)Nc2ccc(F)c(Br)c2)C[C@@H](c2ccc(F)cc2)NS1(=O)=O [HBV-CSU-211-ISO-II, Cis-N-(3-Bromo-4-fluorophenyl)-5-(4-fluorophenyl)-2-methyl-1,2,6-thiadiazinane-3-carboxamide 1,1-dioxide]	> 5 µM
CN1[C@H](C(=O)Nc2cc(F)c(F)c(F)c2)C[C@H](c2ccc(F)cc2)NS1(=O)=O [HBV-CSU-212-ISO-I, Cis-5-(4-Fluorophenyl)-2-methyl-N-(3,4,5-trifluorophenyl)-1,2,6-thiadiazinane-3-carboxamide 1,1-dioxide]	< 1 µM
CN1[C@@H](C(=O)Nc2cc(F)c(F)c(F)c2)C[C@@H](c2ccc(F)cc2)NS1(=O)=O [HBV-CSU-212-ISO-II, Cis-5-(4-Fluorophenyl)-2-methyl-N-(3,4,5-trifluorophenyl)-1,2,6-thiadiazinane-3-carboxamide 1,1-dioxide]	> 5 µM
CN1[C@@H](C(=O)Nc2ccc(F)c(Cl)c2)C[C@@H](c2ccc(C(N)=O)cc2)NS1(=O)=O [HBV-CSU-214-ISO-I, Cis-5-(4-Carbamoylphenyl)-N-(3-chloro-4-fluorophenyl)-2-methyl-1,2,6-thiadiazinane-3-carboxamide 1,1-dioxide]	> 5 µM
